From patent US20260078118A1, “COMBINED PRODUCT, SALT AND USE THEREOF” (SHANGHAI HENLIUS BIOTECH, INC., priority 2023, published 2026)
Counter-ions that a name gives are not always drawn.

What was measured:
[1] = test system: mice subjected to intragastric administration of α-naphthylisothiocyanate (ANIT); experiment: ANIT mouse model, serological indicators; type: in vivo, C57BL/6 mice; conditions: vs. ANIT model group
From the text: In order to verify the technical effects observed in the in vitro cell models, this experiment further examined the effects of compound Y and compound B on serological indicators in a mouse model subjected to intragastric administration of α-naphthylisothiocyanate (ANIT). Fifty-four female C57BL/6 mice aged 6-8 weeks were purchased from Shanghai Lingchang Biotechnology Co., Ltd. After one week of acclimatization, the mice were divided into 6 groups according to body weight, and this time point was designated as day −3. The test compound in each group was intragastrically administered starting from day −3. After three consecutive days of administration, modeling was performed by intragastric administration of ANIT at a dose of 50 mg/kg, and this time point was designated as day 0. During modeling, the healthy group (control) received a single oral dose of pure olive oil. Throughout the entire experimental period, both the healthy group (control) and the model group (ANIT) were given corresponding doses of vehicle (sodium carboxymethylcellulose) according to body weight. The mice were observed daily for health status and body weight changes. The experimental endpoint was day 2; prior to euthanasia, the mice were fasted for 6 h, and cardiac blood collection and liver sample acquisition were performed under anesthesia. The primary indicators were serological changes including AST, ALT, and ALP.
In order to verify the technical effects observed in the DDC model, this experiment further examined the effects of various compound combinations on serological indicators in a mouse model subjected to intragastric administration of α-naphthylisothiocyanate (ANIT). Fifty-six female C57BL/6 mice aged 6-8 weeks were purchased from Shanghai Lingchang Biotechnology Co., Ltd. After one week of acclimatization, the mice were divided into 7 groups according to body weight, and this time point was designated as day −3. The compound in each group was intragastrically administered starting from day −3. After three consecutive days of administration, modeling was performed by intragastric administration of ANIT at a dose of 50 mg/kg, and this time point was designated as day 0. The normal control group received a single oral dose of pure olive oil. Throughout the entire experimental period, both the healthy group (control) and the model group (ANIT) were given corresponding doses of vehicle (sodium carboxymethylcellulose) according to body weight. The mice were observed daily for health status and body weight changes. The experimental endpoint was day 2; prior to euthanasia, the mice were fasted for 6 h, and cardiac blood collection and liver sample acquisition were performed under anesthesia. The primary indicators were serological changes including AST, ALT, and ALP.

HepG2 cells = experiment: Protection of hepatocytes from deoxycholic acid (DCA)-induced cell damage, CCK8 viability; type: cell-based; conditions: then 1 mM DCA 4 h; for cell viability: compound N 50 μM for 24 h, vs. DCA-treated group
Protocol: (§1) First, 2.5×10^4 HepG2 cells were seeded in a 96-well flat-bottom plate with an MEM medium containing 10% fetal bovine serum. The cells were cultured overnight in an incubator at 37° C. with 5% CO2 for adhesion. Subsequently, various compounds at corresponding concentrations (compound Y: 100 μM; compound B: 100 μM; compound N: 50 μM) were incubated with the HepG2 cells in the incubator at 37° C. with 5% CO2 for 24 h. All groups, except for the blank control group, were treated with 1 mM deoxycholic acid (DCA, a secondary bile acid that can directly induce hepatocyte damage) for 4 h. All groups were supplemented with 10 μL of CCK8 reagent and incubated under the incubator conditions for 1 h. The absorbance was measured at a wavelength of 450 nm using a microplate reader, which indirectly reflected the number of viable cells. All data were calculated and presented as percentages relative to the absorbance measured in the blank control group not treated with deoxycholic acid.
as §1, with “Y: 50” for “Y: 100 μM; compound B: 100”, “N: 50 µM; compound combination Y+N: 50 μM+50 μM (molar ratio: 1:1); YN salt:” for “N:”, “h. Then, the” for “h. The”
as §1, with “µM;” for “μM; compound B: 100 μM;”, “µM; compound combination Y+N: 100 μM+50 μM (molar ratio: 2:1))” for “μM)”
First, 2.5×10^4 HepG2 cells were seeded in a 96-well flat-bottom plate with an MEM medium containing 10% fetal bovine serum. The cells were cultured overnight in an incubator at 37° C. with 5% CO2 for adhesion. […] The absorbance was measured at a wavelength of 450 nm using a microplate reader, which indirectly reflected the number of viable cells. […]

CD4-positive T cells = experiment: Proliferation of CD4-positive T cells from Anti-CD3/CD28-stimulated PBMCs (CellTrace, flow cytometry); type: cell-based, human; conditions: FIG. 5; compound Y 200 μM, Y+N 200 μM+100 μM, 72 h; vs. DMSO control
Protocol: (§2) First, a certain amount of human peripheral blood mononuclear cells (PBMCs) were incubated with 5 μM CellTrace cell proliferation assay reagent in an incubator at 37° C. with 5% CO2 in the dark for 20 min. Then, 1.5×10^5 CellTrace-stained PBMCs were seeded in a 96-well U-bottom plate and treated with Anti-CD3/CD28 antibody-coupled magnetic beads at a ratio of 1:1 (cell count:magnetic bead count) to induce differentiation into T cells. Subsequently, various compounds at corresponding concentrations (compound Y: 200 µM; compound N: 100 µM; compound combination Y+N: 200 μM+100 μM; control group: UDCA (100 μM)) were co-incubated with the above-treated cells in the incubator at 37° C. with 5% CO2 for 72 h, followed by analysis by a flow cytometer. Specifically, the test cells were first treated with a Live/dead dye (633 nm, 1:1000 dilution) at 4° C. for 30 min to distinguish dead cells from live cells. Subsequently, the above test cells were simultaneously co-incubated with wavelength dyes anti-CD45-PerCPCy5.5, anti-CD4-AF700, and anti-CD8-FITC at room temperature for 30 min to distinguish different series of T cells (CD4-positive T cells and CD8-positive T cells). After appropriate washing, the above-stained cells were analyzed by a flow cytometer at different wavelengths. […] Proliferation of CD4-positive and CD8-positive T cells was determined by the fluorescence of CellTrace dye.

CD8-positive T cells = experiment: Proliferation of CD8-positive T cells from Anti-CD3/CD28-stimulated PBMCs (CellTrace, flow cytometry); type: cell-based, human; conditions: FIG. 6; compound Y 200 μM, Y+N 200 μM+100 μM, 72 h; vs. DMSO control
Protocol: as §2

[2] = test system: mice fed with feed containing 0.1% DDC (DDC model); experiment: DDC model, serological indicators and liver pathology; type: in vivo, C57BL/6 mice; conditions: Example 12, FIG. 17; U 100 mg/kg, combinations 100+100 mg/kg; vs. DDC model group
From the text: Seventy-one male C57BL/6 mice aged 10 weeks were purchased from Shanghai Lingchang Biotechnology Co., Ltd. […] The compound in each group was intragastrically administered starting from day 0. Throughout the entire experimental period, both the healthy group (control) and the model group (DDC) were given corresponding doses of vehicle (sodium carboxymethylcellulose) according to body weight. The mice were observed daily for health status and body weight changes. The experimental endpoint was day 20. Prior to euthanasia, the mice were fasted for 6 h, and cardiac blood collection and liver sample acquisition were performed under anesthesia. The primary indicators were serological changes including AST, ALT, and ALP; pathological analysis was performed by HE staining. The specific grouping and the administration dose for each group are shown in the table below: Fifty-six male C57BL/6 mice aged 10 weeks were purchased from Shanghai Lingchang Biotechnology Co., Ltd. […] The compound in each group was intragastrically administered starting from day 0. Throughout the entire experimental period, both the healthy group (control) and the model group (DDC) were given corresponding doses of vehicle (sodium carboxymethylcellulose) according to body weight. The mice were observed daily for health status and body weight changes. The experimental endpoint was day 20. […]

[3] = Example 9, FIG. 9, 100 and 50 mg/kg intragastric twice daily
[4] = Example 4, FIG. 1, compound Y 100 μM, compound B 100 μM

COc1ccc2cc3[n+](cc2c1OC)CCc1cc2c(cc1-3)OCO2 [Compound B, Berberine hydrochloride]
serum alkaline phosphatase (ALP) levels ([1]; Example 9, FIG. 7, 100 and 50 mg/kg intragastric twice daily): increased serum ALP levels in a dose-dependent manner
serum ALT levels ([1]; Example 9, FIG. 8, 100 and 50 mg/kg intragastric twice daily): increased serum ALT levels in a dose-dependent manner
serum AST levels [1, 3]: increased serum AST levels in a dose-dependent manner
cell viability (HepG2 cells; [4]): highly significant increase in cell viability

C[C@H](CC(=O)O)[C@H]1CC[C@H]2[C@@H]3[C@@H](O)C[C@@H]4C[C@H](O)CC[C@]4(C)[C@H]3CC[C@]12C [Compound N, 24-Norursodeoxycholic acid]
cell viability (HepG2 cells; [4]): trend toward improved cell viability, but the trend was not significant
cell viability (HepG2 cells; Example 5, FIG. 2): trend toward improved cell viability, but the trend was not significant

COc1cc2cc3[n+](cc2cc1OC)CCc1cc2c(cc1-3)OCO2 [Compound Y]
proliferation of CD4-positive T cells (CD4-positive T cells): significantly inhibited
serum alkaline phosphatase (ALP) levels ([1]; Example 9, FIG. 7, 50 mg/kg intragastric twice daily, day -3 to day 2): reduced serum ALP levels
serum alkaline phosphatase (ALP) levels ([1]; Example 9, FIG. 7, 100 mg/kg intragastric twice daily, day -3 to day 2): significantly reduced serum alkaline phosphatase (ALP) levels
serum ALT levels ([1]; Example 9, FIG. 8, 50 mg/kg intragastric twice daily): reduced serum ALT levels
serum ALT levels ([1]; Example 9, FIG. 8, 100 mg/kg intragastric twice daily): significantly reduced serum ALT levels
serum AST levels [1, 3]: reduced serum AST levels in a dose-dependent manner
cell viability (HepG2 cells; [4]): highly significant increase in cell viability
cell viability (percentage relative to blank control) (HepG2 cells; Example 5, FIG. 2, compound Y 50 μM, Y+N 50 μM+50 μM (1:1), YN salt 50 μM for 24 h): 72%
proliferation of CD8-positive T cells (CD8-positive T cells): significantly inhibited

C[C@H](CCC(=O)O)[C@H]1CC[C@H]2[C@@H]3[C@@H](O)C[C@@H]4C[C@H](O)CC[C@]4(C)[C@H]3CC[C@]12C [U, Ursodeoxycholic acid]
serum alkaline phosphatase (ALP) levels ([1]; Example 10, FIG. 10, U 100 mg/kg intragastric twice daily): reduced serum alkaline phosphatase (ALP) levels
serum ALT levels ([1]; Example 10, FIG. 11, U 100 mg/kg, Y+N 100+50 mg/kg intragastric twice daily): significantly increased serum ALT levels
serum AST levels ([1]; Example 10, FIG. 12, U 100 mg/kg, Y+N 100+50 mg/kg intragastric twice daily): significantly increased serum AST levels
bile pigment-positive area of the liver [2]: significant reduction in the bile pigment-positive area of the liver
